In patent publication US20110123530A1, “COMPOSITIONS AND METHODS FOR TREATING AND DIAGNOSING ASTHMA” (priority 2008, published 2011):

Assays:
[1] = system: healthy and asthmatic subjects; test: Methacholine challenge testing (PC20, airway hyper-responsiveness); type: in vivo, human; conditions: median
Protocol: (§1) (A) Volume of air exhaled in the first second of a forced expiration (FEV1), a measure of airway obstruction. (B) Improvement in FEV1 after 4 puffs (360 μg) of albuterol (bronchodilator reversibility testing). (C) Provocative concentration of methacholine required to induce a 20% decline in FEV1 (PC20), a measure of airway hyper-responsiveness.
Healthy controls (N=27) had no history of lung disease and lacked airway hyper-responsiveness (PC20 methacholine >16 mg/mL). Certain studies included current smokers without asthma (N=16). Exclusion criteria for all subjects included upper respiratory tract infection in the previous 4 weeks, asthma exacerbation within 6 weeks and current use of salmeterol, astemizole, nedocromil sodium, sodium cromoglycate, methlyxanthines, montelukast or zafirlukast. Subjects underwent baseline evaluation by study physicians (including spirometry and methacholine challenge testing as described previously). Subjects also underwent allergen skin prick testing (ASPT) with a panel of 12 aeroallergens, a positive control and a negative control (Table 6).
The minimal concentration of methacholine in mg/ml required to induce a decrease in FEV1 of 20% (PC20, measured at a screening visit one week prior to bronchoscopy) is a measure of bronchial hyperresponsiveness. This is a measure of bronchial hyper-reactivity (BHR).
(§2) The asthmatic subjects were further analyzed with respect to additional demographic characteristics and clinical features as those described in Example 7. […] This difference in AHR was apparent despite inclusion criteria that required all asthmatics to have significant AHR (all asthmatics <8 mg/ml, all healthy controls >20 mg/ml).

[2] = system: healthy and asthmatic subjects; test: Bronchodilator reversibility testing: improvement in FEV1 after albuterol; type: in vivo, human; conditions: 4 puffs (360 μg) of albuterol, mean ± SD
Protocol: as §1
For the purposes of identifying subsets of patients with asthma who differ with respect to the molecular mechanism underlying their airway inflammation and the distinct inflammatory, pathological and clinical phenotypes characteristic of these subsets, we first conducted new analyses on our previously generated epithelial cell microarray data, and we then supplemented these new analyses with review of additional and detailed clinical characterization data (including data on bronchodilator reversibility and allergen skin test reactivity) from these same subjects and newly generated data, including: (i) gene expression profiles in homogenates of bronchial biopsies and alveolar macrophages; (ii) quantitative measures of subepithelial collagen and airway epithelial mucin in bronchial biopsies; (iii) total and differential cell counts in BAL.
as §2

**Q.** What does the source list for `CC(=O)OC(C)C[N+](C)(C)C` (stereo not drawn) [Methacholine, methacholine]?
**A.** Methacholine PC20 (provocative concentration required to cause a 20% decline in FEV1) ([1]; Healthy Control): 64 mg/mL; Methacholine PC20 (provocative concentration required to cause a 20% decline in FEV1) ([1]; asthma, IL13 Signature Low): 0.93 mg/mL; Methacholine PC20 (provocative concentration required to cause a 20% decline in FEV1) ([1]; asthma, IL-13 Signature High): 0.27 mg/mL

**Q.** How did the “ΔFEV1 with albuterol (% of baseline)” value ([2]; Healthy Control) turn out when `CC(C)(C)NCC(O)c1ccc(O)c(CO)c1` (stereo not drawn) [albuterol] was run?
**A.** Its value is 2.7 ± 3.4% of baseline.

**Q.** What about the “ΔFEV1 with albuterol (% of baseline)” value ([2]; asthma, IL13 Signature Low) of the same molecule?
**A.** The value was 9.7 ± 7.4% of baseline.

**Q.** And the “ΔFEV1 with albuterol (% of baseline)” value ([2]; asthma, IL-13 Signature High)?
**A.** The value was 12.5 ± 9.8 % of baseline.
